Measurements: the supplement of paper PMC10883282
± gives the standard deviation of the averaged measurements.

Key:
Assay in all cases: relative viability vs DMSO control (72 h) (fraction); higher = more viable cells
[1] = test system: A204
Procedure, shortened: (§1)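 Sarcoma cell lines were seeded in 384-well plates at densities chosen for 80–90% confluence, then 24 h later given 2.5 µl of serially diluted compound drawn from source plates spanning 10 mM to 0.0002 mM. They were held 72 h at 37 °C, 5% CO2, with 0.1% DMSO vehicle and a 5 µM positive control included. Relative viability was read with ATPLite as percent growth and averaged over up to triplicate wells. Rescaling placed full at 1 and none at 0.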

[2] = test system: G401
Procedure, shortened: as §1

[3] = test system: HS729
Procedure, shortened: as §1

[4] = test system: KHOS-240S
Procedure, shortened: as §1

[5] = test system: MES-SA
Procedure, shortened: as §1

[6] = test system: RD
Procedure, shortened: as §1

[7] = test system: SK-ES-1
Procedure, shortened: as §1

[8] = test system: SK-LMS-1
Procedure, shortened: as §1

[9] = test system: SW1353
Procedure, shortened: as §1

[10] = test system: SW872
Procedure, shortened: as §1

[11] = test system: SW982
Procedure, shortened: as §1

[12] = test system: VA-ES-BJ
Procedure, shortened: as §1

## CCc1cnn2c(NCc3ccc[n+]([O-])c3)cc(N3CCCC[C@H]3CCO)nc12 [Dinaciclib]
[1]; 0.00017 µM
  relative viability: 0.998 ± 0.031
[1]; 0.00051 µM
  relative viability: 1.02 ± 0.051
[1]; 0.00152 µM
  relative viability: 0.9831 ± 0.0034
[1]; 0.00457 µM
  relative viability: 0.913 ± 0.063
[1]; 0.01372 µM
  relative viability: 0.482 ± 0.0053
[1]; 0.04115 µM
  relative viability: 0.247 ± 0.09
[1]; 0.1235 µM
  relative viability: 0.235 ± 0.065
[1]; 0.3704 µM
  relative viability: 0.199 ± 0.013
[1]; 1.111 µM
  relative viability: 0.187 ± 0.0096
[1]; 3.333 µM
  relative viability: 0.179 ± 0.0083
[1]; 10 µM
  relative viability: 0.18 ± 0.021
[2]; 0.00017 µM
  relative viability: 0.997 ± 0.03
[2]; 0.00051 µM
  relative viability: 0.974 ± 0.067
[2]; 0.00152 µM
  relative viability: 0.989 ± 0.071
[2]; 0.00457 µM
  relative viability: 0.915 ± 0.034
[2]; 0.01372 µM
  relative viability: 0.46 ± 0.056
[2]; 0.04115 µM
  relative viability: 0.089 ± 0.0047
[2]; 0.1235 µM
  relative viability: 0.0853 ± 0.0024
[2]; 0.3704 µM
  relative viability: 0.0974 ± 0.0011
[2]; 1.111 µM
  relative viability: 0.0916 ± 0.0065
[2]; 3.333 µM
  relative viability: 0.0843 ± 0.0081
[2]; 10 µM
  relative viability: 0.072 ± 0.0028
[3]; 0.00017 µM
  relative viability: 1.05 ± 0.042
[3]; 0.00051 µM
  relative viability: 1.08 ± 0.052
[3]; 0.00152 µM
  relative viability: 1.09 ± 0.07
[3]; 0.00457 µM
  relative viability: 1.06 ± 0.033
[3]; 0.01372 µM
  relative viability: 1.03 ± 0.039
[3]; 0.04115 µM
  relative viability: 0.396 ± 0.033
[3]; 0.1235 µM
  relative viability: 0.378 ± 0.01
[3]; 0.3704 µM
  relative viability: 0.397 ± 0.026
[3]; 1.111 µM
  relative viability: 0.386 ± 0.015
[3]; 3.333 µM
  relative viability: 0.371 ± 0.024
[3]; 10 µM
  relative viability: 0.332 ± 0.018
[4]; 0.00017 µM
  relative viability: 0.954 ± 0.059
[4]; 0.00051 µM
  relative viability: 0.976 ± 0.019
[4]; 0.00152 µM
  relative viability: 0.966 ± 0.019
[4]; 0.00457 µM
  relative viability: 0.913 ± 0.042
[4]; 0.01372 µM
  relative viability: 0.45 ± 0.015
[4]; 0.04115 µM
  relative viability: 0.214 ± 0.015
[4]; 0.1235 µM
  relative viability: 0.207 ± 0.0036
[4]; 0.3704 µM
  relative viability: 0.21 ± 0.013
[4]; 1.111 µM
  relative viability: 0.218 ± 0.0076
[4]; 3.333 µM
  relative viability: 0.213 ± 0.018
[4]; 10 µM
  relative viability: 0.181 ± 0.0099
[5]; 0.00017 µM
  relative viability: 0.994 ± 0.056
[5]; 0.00051 µM
  relative viability: 1.04 ± 0.032
[5]; 0.00152 µM
  relative viability: 0.957 ± 0.024
[5]; 0.00457 µM
  relative viability: 0.912 ± 0.015
[5]; 0.01372 µM
  relative viability: 0.383 ± 0.044
[5]; 0.04115 µM
  relative viability: 0.0374 ± 0.0044
[5]; 0.1235 µM
  relative viability: 0.0354 ± 0.0037
[5]; 0.3704 µM
  relative viability: 0.0357 ± 0.0044
[5]; 1.111 µM
  relative viability: 0.0288 ± 0.0057
[5]; 3.333 µM
  relative viability: 0.0272 ± 0.0025
[5]; 10 µM
  relative viability: 0.0262 ± 0.0046
[6]; 0.00017 µM
  relative viability: 0.828 ± 0.056
[6]; 0.00051 µM
  relative viability: 0.851 ± 0.046
[6]; 0.00152 µM
  relative viability: 0.821 ± 0.046
[6]; 0.00457 µM
  relative viability: 0.736 ± 0.019
[6]; 0.01372 µM
  relative viability: 0.504 ± 0.016
[6]; 0.04115 µM
  relative viability: 0.163 ± 0.0055
[6]; 0.1235 µM
  relative viability: 0.162 ± 0.0068
[6]; 0.3704 µM
  relative viability: 0.137 ± 0.011
[6]; 1.111 µM
  relative viability: 0.119 ± 0.008
[6]; 3.333 µM
  relative viability: 0.103 ± 0.0059
[6]; 10 µM
  relative viability: 0.0835 ± 0.0056
[7]; 0.00017 µM
  relative viability: 0.939 ± 0.051
[7]; 0.00051 µM
  relative viability: 1 ± 0.021
[7]; 0.00152 µM
  relative viability: 0.939 ± 0.07
[7]; 0.00457 µM
  relative viability: 0.79 ± 0.098
[7]; 0.01372 µM
  relative viability: 0.411 ± 0.026
[7]; 0.04115 µM
  relative viability: 0.0163 ± 0.00021
[7]; 0.1235 µM
  relative viability: 0.0154 ± 0.0012
[7]; 0.3704 µM
  relative viability: 0.00863 ± 0.00038
[7]; 1.111 µM
  relative viability: 0.00557 ± 0.00021
[7]; 3.333 µM
  relative viability: 0.000967 ± 0.00067
[7]; 10 µM
  relative viability: -0.000867 ± 0.0013
[8]; 0.00017 µM
  relative viability: 1.06 ± 0.042
[8]; 0.00051 µM
  relative viability: 1.05 ± 0.047
[8]; 0.00152 µM
  relative viability: 1.07 ± 0.052
[8]; 0.00457 µM
  relative viability: 1.03 ± 0.038
[8]; 0.01372 µM
  relative viability: 0.817 ± 0.041
[8]; 0.04115 µM
  relative viability: 0.325 ± 0.03
[8]; 0.1235 µM
  relative viability: 0.309 ± 0.022
[8]; 0.3704 µM
  relative viability: 0.333 ± 0.014
[8]; 1.111 µM
  relative viability: 0.341 ± 0.023
[8]; 3.333 µM
  relative viability: 0.34 ± 0.017
[8]; 10 µM
  relative viability: 0.353 ± 0.013
[9]; 0.00017 µM
  relative viability: 1.05 ± 0.028
[9]; 0.00051 µM
  relative viability: 1.08 ± 0.061
[9]; 0.00152 µM
  relative viability: 1.07 ± 0.04
[9]; 0.00457 µM
  relative viability: 1.07 ± 0.054
[9]; 0.01372 µM
  relative viability: 0.944 ± 0.029
[9]; 0.04115 µM
  relative viability: 0.238 ± 0.006
[9]; 0.1235 µM
  relative viability: 0.238 ± 0.0093
[9]; 0.3704 µM
  relative viability: 0.242 ± 0.016
[9]; 1.111 µM
  relative viability: 0.235 ± 0.0046
[9]; 3.333 µM
  relative viability: 0.234 ± 0.0038
[9]; 10 µM
  relative viability: 0.219 ± 0.0075
[10]; 0.00017 µM
  relative viability: 1.01 ± 0.036
[10]; 0.00051 µM
  relative viability: 1.01 ± 0.043
[10]; 0.00152 µM
  relative viability: 1.01 ± 0.047
[10]; 0.00457 µM
  relative viability: 1.03 ± 0.025
[10]; 0.01372 µM
  relative viability: 0.947 ± 0.062
[10]; 0.04115 µM
  relative viability: 0.412 ± 0.03
[10]; 0.1235 µM
  relative viability: 0.279 ± 0.01
[10]; 0.3704 µM
  relative viability: 0.268 ± 0.017
[10]; 1.111 µM
  relative viability: 0.259 ± 0.011
[10]; 3.333 µM
  relative viability: 0.256 ± 0.0063
[10]; 10 µM
  relative viability: 0.245 ± 0.0094
[11]; 0.00017 µM
  relative viability: 0.9568 ± 0.0059
[11]; 0.00051 µM
  relative viability: 0.98 ± 0.01
[11]; 0.00152 µM
  relative viability: 0.984 ± 0.022
[11]; 0.00457 µM
  relative viability: 0.962 ± 0.085
[11]; 0.01372 µM
  relative viability: 0.566 ± 0.021
[11]; 0.04115 µM
  relative viability: 0.223 ± 0.016
[11]; 0.1235 µM
  relative viability: 0.239 ± 0.0083
[11]; 0.3704 µM
  relative viability: 0.269 ± 0.0088
[11]; 1.111 µM
  relative viability: 0.267 ± 0.0062
[11]; 3.333 µM
  relative viability: 0.25 ± 0.01
[11]; 10 µM
  relative viability: 0.227 ± 0.012
[12]; 0.00017 µM
  relative viability: 0.994 ± 0.037
[12]; 0.00051 µM
  relative viability: 1.011 ± 0.0065
[12]; 0.00152 µM
  relative viability: 1.03 ± 0.036
[12]; 0.00457 µM
  relative viability: 0.94 ± 0.046
[12]; 0.01372 µM
  relative viability: 0.269 ± 0.024
[12]; 0.04115 µM
  relative viability: 0.222 ± 0.0076
[12]; 0.1235 µM
  relative viability: 0.227 ± 0.013
[12]; 0.3704 µM
  relative viability: 0.255 ± 0.012
[12]; 1.111 µM
  relative viability: 0.245 ± 0.011
[12]; 3.333 µM
  relative viability: 0.253 ± 0.013
[12]; 10 µM
  relative viability: 0.247 ± 0.0071
